Laboratory results from US10583206B2, “Radioactive probe for detecting hydrogen sulfide” (KYUNGPOOK NATIONAL UNIVERSITY INDUSTRY-ACADEMIC COOPERATION …, priority 2015, dated 2020).
Where two headings read alike, the source gives them in different places.

Experiments:
[1] = Test of hydrogen sulfide detection over time (^64CuS formation, radio-TLC); format: physicochemical; set-up: unit not given here; details: 100 μM NaHS, 37° C.
Method: To examine reactivity of the ^64Cu-labeled complex compound according to the present disclosure over time, the following experiment was performed.
A detailed experimental method is as follows.
About 45 μCi-50 μCi of ^64Cu-labeled complex compound (250 μL of triple distilled water) was mixed with 100 μM of NaHS solution ([…] of triple distilled water), and stirred at 37° C. for 15 minutes. Formation of copper sulfide (^64CuS) was quantified by using a radio-TLC scanner.

[2] = Hydrogen sulfide selectivity test: decomplexation by Hcys; format: physicochemical; details: 100 μM or L-Hcys (10 mM), 37° C. for 15 minutes
Method: (§1) In addition to hydrogen sulfide, many different anions, radicals, etc. exist in the body. Therefore, to examine selective reactivity of the ^64Cu-labeled complex compound according to the present disclosure for sulfide ions, the following experiment was performed.
(§2) About 45 μCi-55 μCi of the ^64Cu-labeled complex compound (250 μL of triple distilled water) was mixed with 100 μM of various anion solutions (250 μL of triple distilled water) including biothiol, and stirred at 37° C. for 15 minutes.
(§3) Formation of copper sulfide (^64CuS) was quantified by using a radio-TLC scanner.
(§4) Various biothiol or salt solutions were prepared by dissolving the compounds in triple distilled water.
(§5) In Table, concentrations of all biothiols and other competitive materials are 100 μM. Further, specific concentrations of biothiols, anions, and oxidants used in Table are as follows: [L-Cys (1 mM); L-Hcys (10 mM); GSH (10 mM); DL-dithiothretitol (DTT, 100 μM); L-ascorbic acid (L-AsA, 10 mM); 2-mercaptoethanol (2-ME, 10 mM); NaCl (10 mm); KI (1 mM); Na2S2O3 (1 mM); Na2S2O5 (1 mM); NaOAc (1 mM); H2O2 ([…]); NaClO4 (100 μM); NaHCO3 (100 μM); NaNO2 ([…]); NaN3 (100 μM); ATB 337 (100 μM); diallyl trisulphide (100 μM)].

[3] = Hydrogen sulfide selectivity test: decomplexation by GSH; format: physicochemical; details: 100 μM or GSH (10 mM), 37° C. for 15 minutes
Method: as §1, §2, §3, §4, §5

[4] = Hydrogen sulfide selectivity test: decomplexation by DTT; format: physicochemical; details: DL-dithiothretitol (DTT, 100 μM); 37° C. for 15 minutes
Method: as §1, §2, §3, §4, §5

[5] = Hydrogen sulfide selectivity test: decomplexation by L-AsA; format: physicochemical; details: L-ascorbic acid; 100 μM or (L-AsA, 10 mM); 37° C. for 15 minutes
Method: as §1, §2, §3, §4, §5

[6] = Hydrogen sulfide selectivity test: decomplexation by ME; format: physicochemical; details: 2-mercaptoethanol; 100 μM or (2-ME, 10 mM); 37° C. for 15 minutes
Method: as §1, §2, §3, §4, §5

[7] = Hydrogen sulfide selectivity test: decomplexation by NaCl; format: physicochemical; details: 100 μM or NaCl (10 mm), 37° C. for 15 minutes
Method: as §1, §2, §3, §4, §5

[8] = Hydrogen sulfide selectivity test: decomplexation by Kl; format: physicochemical; details: 100 μM or KI (1 mM), 37° C. for 15 minutes
Method: as §1, §2, §3, §4, §5

[9] = Hydrogen sulfide selectivity test: decomplexation by Na2S2O3; format: physicochemical; details: 100 μM or (1 mM), 37° C. for 15 minutes
Method: as §1, §2, §3, §4, §5

[10] = Hydrogen sulfide selectivity test: decomplexation by Na2S2O5; format: physicochemical; details: 100 μM or (1 mM), 37° C. for 15 minutes
Method: as §1, §2, §3, §4, §5

[11] = Hydrogen sulfide selectivity test: decomplexation by NaOAc; format: physicochemical; details: 100 μM or (1 mM), 37° C. for 15 minutes
Method: as §1, §2, §3, §4, §5

[12] = Hydrogen sulfide selectivity test: decomplexation by NaNO2; format: physicochemical; details: NaNO2 (100 µM); 37° C. for 15 minutes
Method: as §1, §2, §3, §4, §5

[13] = Hydrogen sulfide selectivity test: decomplexation by ATB 337; format: physicochemical; details: ATB 337 (100 μM); 37° C. for 15 minutes
Method: as §1, §2, §3, §4, §5

[14] = Hydrogen sulfide selectivity test: decomplexation by DAT (diallyl trisulphide); format: physicochemical; details: DAT = diallyl trisulphide (100 μM); 37° C. for 15 minutes
Method: as §1, §2, §3, §4, §5

Paw inflammation model = format: in vivo, Balb/c or ICR mice
Method: (1) Paw Pain Inflammation Model
A small amount of CFA (complete Freund's adjuvant) or formalin was injected into only one paw (right) of the hind paws of Balb/c or ICR mice to establish inflammation models. 1 day after injection of the inflammation inducer, the mice were used in imaging or other in vivo experiments.
It is a known fact that inflamed sites show high concentrations of hydrogen sulfide.
Nuclear medicine imaging was measured by using an Inveon PET/CT system of Siemens Healthcare, and optical imaging was measured by using IVIS spectrum CT equipment. Cherenkov radiation emitted from ^64Cu was measured by using a highly sensitive CCD (charge-coupled device) camera.
Imaging was measured for 1 minute to 5 minutes, and a radiation dose was about 50 μCi to 2000 μCi, and photographs were variously taken as needed, such as immediately after first injection, at 1 hour, 4 hours, and 24 hours later.

[15] = system: Myocardial infarction model; assay: Imaging study in myocardial infarction model (PET); format: in vivo, Sprague-Dawley rats
From the text: (2) Myocardial Infarction Model
A myocardial infarction model was established by using Sprague-Dawley rats (12-week-old or older, about 250 g). 2 days later after induction of myocardial infarction by occlusion of the coronary arteries in the heart, the rats were used in imaging tests. It is a known fact that myocardial infarction sites show high concentrations of hydrogen sulfide.
It is known that myocardial infarction sites show high concentrations of hydrogen sulfide. Thus, after induction of myocardial infarction by coronary artery occlusion in rats, 50 μCi-900 μCi of the ^64Cu-labeled complex compound was injected via the tails of the rats, and uptake in the myocardial infarction site was examined over time by PET imaging.
36 hours after establishment of the myocardial infarction model, 730 μCi of the radioisotope-labeled complex compound of the present disclosure was injected and nuclear medicine imaging was performed. 2 days later, […] of FDG was injected into the same rat, and then FDG-PET images were obtained. Results are shown in FIGS. 15 to 17 (in the nuclear medicine imaging, the upper image represents a transverse image, and the lower image represents a coronal image).

Pancreatitis model = assay: Imaging study in pancreatitis model; format: in vivo, Balb/c mouse; details: optical images; PET images after excision of tissues
Method: Caerulein (50 μg/kg) was intraperitoneally injected into Balb/c mouse seven times at hourly intervals to prepare a pancreatitis model.
Optical images were obtained after injecting each of the ^64Cu-labeled complex compounds of Example 1 and Example 20 into the prepared rat models having pancreatitis, and PET images were obtained after excision of tissues thereof.

C1C[N]2CC[N]3CC[N]4CC[N]1[64Cu]243 [Example 1, ^64Cu-labeled cyclen]
Formation of copper sulfide (^64CuS) over time ([1]; 10 sec): 13 | Formation of copper sulfide (^64CuS) over time ([1]; 30 sec): 17 | Formation of copper sulfide (^64CuS) over time ([1]; 60 sec): 21 | Formation of copper sulfide (^64CuS) over time ([1]; 5 min): 100 | Formation of copper sulfide (^64CuS) over time ([1]; 10 min): 100 | Formation of copper sulfide (^64CuS) over time ([1]; 15 min): 100 | Decomplexation [%] [2]: 1.4 ± 0.4% | Decomplexation [%] [3]: 0.7 ± 0.0% | Decomplexation [%] [4]: 0.6 ± 0.4% | Decomplexation [%] [5]: 0.5 ± 0.1% | Decomplexation [%] [6]: 0.5 ± 0.1% | Decomplexation [%] [7]: 0.2 ± 0.0% | Decomplexation [%] [8]: 0.7 ± 0.2% | Decomplexation [%] [9]: 0.4 ± 0.0% | Decomplexation [%] [10]: 0.5 ± 0.2% | Decomplexation [%] [11]: 0.6 ± 0.1% | Decomplexation [%] [12]: 0.6 ± 0.0% | Decomplexation [%] [13]: 0.7 ± 0.4% | Decomplexation [%] [14]: 0.4 ± 0.3% | retention time in the animal models (Paw inflammation model; ICR and Balb/c, mouse, in vivo): ≥ 24 h | uptake in inflamed paw versus opposite paw (Paw inflammation model; PET imaging): higher uptake in the inflamed right paw than in the opposite paw | uptake in the CFA-induced inflamed site (Paw inflammation model; optical imaging): increased uptake | uptake in the myocardial infarction site ([15]; image taken at 24 hours after injection): high uptake was detected in the myocardial infarction site | uptake in the pancreas (Pancreatitis model): high uptakes

C1C[N]2CC[N]3CC[N]1[64Cu]23 [Example 20, ^64Cu-labeled TACN]
Formation of copper sulfide (^64CuS) over time ([1]; 10 sec): 0 | Formation of copper sulfide (^64CuS) over time ([1]; 30 sec): 0 | Formation of copper sulfide (^64CuS) over time ([1]; 60 sec): 5 | Formation of copper sulfide (^64CuS) over time ([1]; 5 min): 13 | Formation of copper sulfide (^64CuS) over time ([1]; 10 min): 60 | Formation of copper sulfide (^64CuS) over time ([1]; 15 min): 60 | Decomplexation [%] [2]: 1.1 ± 0.5% | Decomplexation [%] [3]: 2.6 ± 0.0% | Decomplexation [%] [4]: 0.9 ± 0.1% | Decomplexation [%] [5]: 0.8 ± 0.5% | Decomplexation [%] [6]: 0.4 ± 0.0% | Decomplexation [%] [7]: 0.5 ± 0.0% | Decomplexation [%] [8]: 0.4 ± 0.2% | Decomplexation [%] [9]: 0.5 ± 0.0% | Decomplexation [%] [10]: 0.5 ± 0.2% | Decomplexation [%] [11]: 0.3 ± 0.0% | Decomplexation [%] [12]: 0.4 ± 0.0% | Decomplexation [%] [13]: 0.7 ± 0.2% | Decomplexation [%] [14]: 0.7 ± 0.6% | detection of the inflamed site immediately after injection (Paw inflammation model; imaging immediately after injection): detected in imaging immediately after injection | uptake in inflamed paw versus opposite paw (Paw inflammation model; imaging performed after 1 hour, also PET imaging): higher uptake | uptake / visualisation of the myocardial infarction site ([15]; PET imaging after injection): the myocardial infarction site was clearly observed | uptake in the pancreas (Pancreatitis model): high uptakes
